Earlier results in patent publication US10029020B2, “Fullerene compositions” (UNIVERSITEIT GENT, priority 2015, dated 2018).

Columns and labels:
rats = settings: regular administration; Moussa et al., Biomaterials 2012

c12c3c4c5c1c1c6c7c2c2c8c3c3c9c4c4c%10c5c5c1c1c6c6c%11c7c2c2c7c8c3c3c8c9c4c4c9c%10c5c5c1c1c6c6c%11c2c2c7c3c3c8c4c4c9c5c1c1c6c2c3c41 [Polymer C60, buckminsterfullerene (C60)]
lifespan of rats (rats): doubled | water solubility: 10^−8 ng/L
